Assay results taken from patent US12064405B2, “Immunosuppressant comprising TSAHC or a pharmaceutically acceptable salts thereof as an active ingredient” (Seoul National University R&DB Foundation, priority 2020, dated 2024).

Columns and labels:
[1] = test system: SNU449-TM4SF5-HA cell line; test: RNA-Seq / mRNA-Seq of inflammatory cytokine and chemokine expression in TM4SF5-expressing hepatic epithelial cells; format: cell-based, human; details: 10 μM TSAHC for 24 hours
Experimental: To confirm whether the TSAHC treatment affects the expression and secretion of inflammatory cytokines and chemokines in TM4SF5 expression-dependent hepatic epithelial cells, RNA-Seq analysis and mRNA-Seq analysis comparing the mRNA expression were performed in SNU449-HA cell line in which the control vector was safely injected into SNU449, SNU449-TM4SF5-HA cell line injected with TM4SF5 expression vector, and SNU449-TM4SF5-HA cell line treated with 10 μM of TSAHC for 24 hours using the liver tissue of Tg^TM4SF5 overexpressing TM4SF5 or Tm4sf5^−/− KO C57BL/6 mice in Macrogen, Inc. (Seoul, Korea).
The experimental procedure for mRNA-Seq analysis included the followings. […] RNA library was constructed through qPCR using an agilent technologies 2100 bioanalyzer according to qPCR quantification protocol guide. Quality control analysis of the raw reads obtained through sequencing was performed. […] Aligned reads were generated after mapping the pre-treated reads to reference genome using HISAT2 program considering splice. Transcript assembly was performed through the String Tie program using paired information of the aligned reads based on the reference. The expression level obtained through the transcript quantification of each sample was calculated as a normalization value considering the transcript length and depth of coverage. […]

[2] = test system: Hep3B cell line expressing TM4SF5; test: qRT-PCR of CCL20 and CXCL10 mRNA in IL-6-treated Hep3B cell line; format: cell-based, human; details: IL-6 100 ng/ml, TSAHC 0.1 or 0.5 μM for 24 hours
Experimental: Hep3B cell line expressing TM4SF5 that was not treated with IL-6 or treated at a concentration of 100 ng/ml was treated with or without TSAHC at a concentration of 0.1 or 0.5 μM for 24 hours. Then, qRT-PCR was performed using the cells.
Specifically, to perform qRT-PCR, the cells or tissues were disrupted using Qiazol (Qiagen, USA), to which chloroform was added, and the upper […] layer was separated by centrifugation at 4° C., 12,000×g for 15 minutes. RNA was precipitated by adding isopropanol to the separated […] layer, followed by washing with 70% ethanol. RNA pellet was isolated by centrifugation at 7,500×g for 5 minutes, ethanol was evaporated for 10 minutes, and dissolved in 30 μl of DEPC-water. After removing gDNA from the dissolved RNA, it was reverse transcribed using a reverse transcription kit (Toyobo, Japan) to obtain cDNA. The expression was measured by real-time PCR (Biorad, USA) with the obtained cDNA using 2×Eva green master mix (Labopass, Korea) and 0.4 μM forward/reverse primers. The expression amount was calculated using the modified delta-delta Ct method of Pfaffl.

cells expressing TM4SF5 = test: Activation of glycolytic function (acidification of extracellular solution, Seahorse); format: cell-based
Experimental: The cells expressing TM4SF5 were treated with vehicle, a negative control compound (4′-methoxy-4-dihydroxychalcone) or TSAHC. Then, the degree of activation of glycolytic function was measured by measuring the acidification of the extracellular solution due to glycolysis while additionally adding glucose at various concentrations using Seahorse equipment.

TM4SF5 and IL6-Rα = target: T1, TM4SF5 and IL6-Rα (Homo sapiens, UniProt O14894); test: Binding of TM4SF5 and IL6-Rα (streptavidin-agarose precipitation, Western blotting); format: cell-based; details: hepatic epithelial cells expressing TM4SF5-Strep; FIG. 10
T1 construct: expressed in transfected cells
T1 sequence (O14894 1-197): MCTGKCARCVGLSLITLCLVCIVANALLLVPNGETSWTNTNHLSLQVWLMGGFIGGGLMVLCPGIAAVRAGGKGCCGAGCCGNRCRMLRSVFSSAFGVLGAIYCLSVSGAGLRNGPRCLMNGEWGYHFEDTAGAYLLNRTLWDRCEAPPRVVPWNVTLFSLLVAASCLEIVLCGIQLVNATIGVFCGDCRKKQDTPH
Experimental: Hepatic epithelial cells were infected with an empty vector (EV) or lentivirus expressing TM4SF5, and TSAHC was not treated (−) or treated (+) thereto. A cell extract was obtained, and TM4SF5-Strep was precipitated using strepavidin-agarose beads, and then Western blotting was performed with the IL-6 receptor, IL-6Rα antibody.

[3] = test system: cell lines expressing TM4SF5; test: qRT-PCR of M1-type macrophage chemokines/cytokines CCL2, TNF-α, IL-6, IL-1β; format: cell-based; details: cell line expressing TM4SF5, LPS and IFN-γ
Experimental: Cell lines not expressing TM4SF5 (EV) or cell lines expressing thereof (TM4SF5) were treated (+) or not treated with LPS and IFN-γ, treated (+) or not treated with 2-DG (2-Deoxy-D-glucose) as a drug for inhibiting glycolysis at a given concentration, and additionally treated (+) or not treated with TSAHC (−). Then, the mRNA expression levels of CCL2, TNF-α, IL-6, and IL-1β, the chemokines/cytokines indicating the activation of M1-type macrophages, were confirmed by qRT-PCR.

[4] = test system: mouse model in which liver fibrosis is induced by the treatment of CCl4; test: CCl4-induced liver damage, inflammation and fibrosis mouse model with TSAHC treatment; format: in vivo; details: CCl4-treated mice, 4 weeks
Experimental: In a mouse animal model that can be accompanied by cell damage and inflammation when liver fibrosis is induced by the treatment of CCl4, the animal groups periodically treated (+) or not treated (−) with TSAHC during the CCl4 treatment were obtained. The body weight during 4 weeks of the treatment and the liver tissue weight after 4 weeks were calculated as a ratio (liver/body weight), or the ALT liver levels were measured from blood samples. The liver tissue was obtained and Tm4sf5 mRNA was measured by qRT-PCR.
In an animal model treated with CCl4 to induce liver fibrosis, the animal groups periodically treated (+) or not treated (−) with TSAHC during the CCl4 treatment were obtained. After 4 weeks of the treatment, the liver tissue was obtained and H&E and Masson's trichrome staining was performed.
In an animal model treated with CCl4 to induce liver fibrosis, the animal groups periodically treated (+) or not treated (−) with TSAHC during the CCl4 treatment were obtained. After 4 weeks of the treatment, the liver tissue was obtained and immunostaining was performed for Ccl20 and Cxcl10.
(§1) In a mouse model that can be accompanied by cell damage and inflammation when liver fibrosis is induced by CCl4 treatment, the animal groups periodically treated (+) or not treated (−) with TSAHC during the CCl4 treatment were obtained. After 4 weeks of the treatment, the liver tissue was obtained and immunostaining was performed for F4/80, a macrophage marker.
as §1, with “α-SMA indicating the activation of hepatic stellate cells.” for “F4/80, a macrophage marker.”

Structure (SMILES): Cc1ccc(S(=O)(=O)Nc2ccc(C(=O)/C=C/c3ccc(O)cc3)cc2)cc1 [TSAHC, 4′-(p-toluenesulfonylamido)-4-hydroxychalcone]
- expression and secretion of cytokines/chemokines (IL6, IL1β, TNFα, CXCL1, CXCL2, CXCL3, CXCL6, CXCL8, CCL2, CCL5, CCL20, CXCL10, CCR10) according to TM4SF5 expression [1]: suppressed
- CCL20 mRNA expression level increased by IL-6 ([2]; FIG. 4A): reduced
- CXCL10 mRNA expression level increased by IL-6 ([2]; FIG. 4B): reduced
- glycolysis of the cells not expressing TM4SF5 (EV) (cells expressing TM4SF5; EV cell line, FIG. 8B): not changed
- glycolytic function of cells expressing TM4SF5 (cells expressing TM4SF5; various concentrations of glucose added, FIG. 8C): decreased
- binding of TM4SF5 and IL6-Rα (TM4SF5 and IL6-Rα): inhibited
- CCL2 mRNA expression level ([3]; FIG. 11A): decreased
- TNF-α mRNA expression level ([3]; FIG. 11B): decreased
- IL-6 mRNA expression level ([3]; FIG. 11C): decreased
- IL-1β mRNA expression level ([3]; FIG. 11D): decreased
- Tm4sf5 mRNA expression level in liver tissue ([4]; FIG. 19A): decreased
- liver tissue weight and body weight (ratio liver/body weight) ([4]; FIG. 19C): decreased
- collagen accumulation (Masson's trichrome staining) ([4]; FIG. 20): decreased
- degree of liver tissue damage / irregular cell composition (H&E staining) ([4]; FIG. 20): decreased
- Ccl20 mRNA expression level in liver tissue ([4]; FIG. 21): decreased
- Cxcl10 mRNA expression level in liver tissue ([4]; FIG. 21): decreased
- F4/80 mRNA expression in liver tissue ([4]; FIG. 22B): decreased
- α-SMA mRNA expression in liver tissue ([4]; FIG. 23B): decreased
- ALT level ([4]; blood samples, FIG. 19B): decreased
